Earlier results on one compound are cited in US7993390B2, “Implantable or insertable medical device resistant to microbial growth and biofilm formation” (Boston Scientific Scimed, Inc., priority 2002, dated 2011).

Where only a bound is given, the exact number is not on record here.

This data set has as its system most gram positive and gram negative aerobic and anaerobic bacteria, some yeast and fungi. The following applies: most organisms tested.

For `Oc1cc(Cl)ccc1Oc1ccc(Cl)cc1Cl` [triclosan], the MIC is under 0.3 ppm.
